From patent publication US9034877B2 (Wayne State University, priority 2009, dated 2015)
“Also recorded” adds a separate entry of the source.

Assays:
hD3 receptor = target: T1, hD3 receptor (Homo sapiens, UniProt P35462); test: Stimulation of [35S]GTPγS binding, hD3 receptor expressed in CHO cells; type: biochemical
T1 construct: expressed in transfected cells; host or cells: CHO

reserpinized rats = test: Reversal of reserpine-induced hypolocomotion in rats; type: in vivo, rat; conditions: 10 μMol/kg; for Reversal of reserpine-induced hypolocomotion (horizontal locomotor activity): (−)19b i.p., ropinirole s.c., 18 h after reserpine 5 mg/kg s.c., 6 h
Description: Administration of reserpine induces catalepsy in rodents primarily by blocking the vesicular monoamine trasporter (VMAT) which helps in the internalization of monoamines into vesicles, resulting in metabolism of unprotected monoamines in the cytosol that ultimately causes depletion of monoamines in the synapse of the peripheral sympathetic nerve terminals. The ability of the compound (-)-19b to reverse the reserpine induced hypolocomotion was investigated. Ropinirole was used as standard reference compound in this study. Reserpine (5.0 mg/kg, s.c.) or saline (s.c.) were administered 18 h before the injection of drug or vehicle (i.p.). The rats were placed individually in chambers for 1 h for acclimatization purpose before the administration of the test drug, standard drug or vehicle. Immediately after administration of drug or vehicle, animals were individually placed in […] animal activity monitor chamber (45×30×20 cm) (AccuScan Instruments, Inc. Columbus, Ohio) to start measuring locomotor activity. Locomotion was monitored for 6 h. Consecutive interruption of two infrared beams situated 24 cm apart and 4 cm above the cage floor in the monitor chamber recorded movement. The data were presented as horizontal counts (HACTV). The effect of the individual doses of drugs on locomotor activity was compared with respect to saline treated controls (mean±S.E.M.). The data were analyzed by one way analysis of variance (ANOVA) followed by Dunnett's post-hoc test.

6-OHDA lesioned rats = test: Rotational experiment with 6-OHDA unilaterally lesioned rats; type: in vivo, rat
[1] = background statement; cited from earlier work

T1 sequence (P35462 whole entry): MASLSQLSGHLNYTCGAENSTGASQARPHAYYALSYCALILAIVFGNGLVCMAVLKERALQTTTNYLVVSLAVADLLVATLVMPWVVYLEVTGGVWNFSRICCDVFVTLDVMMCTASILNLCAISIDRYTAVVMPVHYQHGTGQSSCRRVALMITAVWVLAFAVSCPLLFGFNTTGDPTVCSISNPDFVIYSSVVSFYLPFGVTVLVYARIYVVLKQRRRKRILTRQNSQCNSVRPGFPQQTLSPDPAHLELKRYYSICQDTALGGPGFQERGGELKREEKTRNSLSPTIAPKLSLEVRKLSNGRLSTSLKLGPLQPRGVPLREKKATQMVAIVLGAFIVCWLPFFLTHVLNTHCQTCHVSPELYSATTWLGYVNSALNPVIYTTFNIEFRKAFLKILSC

| SMILES | Agonism at D3 compared with dopamine (hD3 receptor) | Reversal of reserpine-induced hypolocomotion (horizontal locomotor activity) (reserpinized rats) | Rotational activity at the higher dose (6-OHDA lesioned rats; 1 μMol/kg (0.61 mg/kg), 11 h) | Activity in animal experiments [1] | Duration of action in reserpinized rats (reserpinized rats; compared with (−)19b) | Rotations and duration of action (6-OHDA lesioned rats; 5 μMol/kg) | Effect on rotations compared to vehicle (Dunnett) (6-OHDA lesioned rats; (−)19b two doses i.p., ropinirole) |
| --- | --- | --- | --- | --- | --- | --- | --- |
| CCCN(CCN1CCN(c2ccnc3c(O)cccc23)CC1)C1CCc2c(O)cccc2C1 (single isomer, unassigned; (-)) [Compound (−)19b, (−)-4-(4-(2-((5-hydroxy-1,2,3,4-tetrahydronaphthalen-2-yl) (propyl)amino)ethyl)piperazin-1-yl)quinolin-8-ol] | full or near-complete agonism | highly efficacious; also recorded: significantly different | remained high at the termination of the experiments | – | – | – | – |
| C#CCNCc1ccc(O)c2ncccc12 [Compound M30, 5-((prop-2-ynylamino)methyl)quinolin-8-ol] | – | – | – | antioxidant and neuroprotective | – | – | – |
| OCCN1CCN(Cc2ccc(O)c3ncccc23)CC1 [VK 28, 5-((4-(2-hydroxyethyl)piperazin-1-yl)methyl)quinolin-8-ol] | – | – | – | antioxidant and neuroprotective | – | – | – |
| CCCN(CCC)CCc1cccc2c1CC(=O)N2 [ropinirole, reference compound] | full or near-complete agonism | significantly different | – | – | much shorter duration of action | much less rotations with shorter duration of action | significant |
